Laboratory results taken from ChEMBL document CHEMBL1201862, “PubChem BioAssay data set” (2004).
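Exposure lasted 48 hours, with cells grown in 96-well plates and compounds tested at five concentrations. Abbreviation: GI50, concentration required for 50% inhibition of growth.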 The source made the active and inactive calls. Cut-off read from the data, not from the text of the source: active = GI50 up to about 1.1 µM and inactive = higher.

Tests used:
Assay in all cases: NCI anticancer screen, dose series, 48 h
[1] = tested on: DLD-1
[2] = tested on: RXF 631
[3] = tested on: Hs-578T
[4] = tested on: SK-MEL-2
[5] = tested on: SW-620
[6] = tested on: NCI-H23
[7] = tested on: LOX IMVI
[8] = tested on: M19-MEL
[9] = tested on: A549
[10] = tested on: RXF 393
[11] = tested on: BT-549
[12] = tested on: 786-0
[13] = tested on: SK-MEL-5
[14] = tested on: SNB-75
[15] = tested on: EKVX
[16] = tested on: HL-60
[17] = tested on: MDA-N
[18] = tested on: COLO 205
[19] = tested on: MDA-MB-435
[20] = tested on: HOP-62
[21] = tested on: SR
[22] = tested on: DMS-273
[23] = tested on: NCI-H522
[24] = tested on: HOP-92
[25] = tested on: KM-20L2
[26] = tested on: DMS-114
[27] = tested on: SF-539
[28] = tested on: DU-145
[29] = tested on: SF-268
[30] = tested on: OVCAR-3
[31] = tested on: SK-MEL-28
[32] = tested on: Malme-3M
[33] = tested on: MDA-MB-231
[34] = tested on: PC-3
[35] = tested on: SNB-19
[36] = tested on: HCT-116
[37] = tested on: MCF7
[38] = tested on: OVCAR-4
[39] = tested on: NCI-H226
[40] = tested on: MOLT-4
[41] = tested on: HCT-15
[42] = tested on: SNB-78
[43] = tested on: UACC-257
[44] = tested on: SK-OV-3
[45] = tested on: KM12
[46] = tested on: HT-29
[47] = tested on: OVCAR-8
[48] = tested on: M14
[49] = tested on: IGROV-1
[50] = tested on: HOP-18
[51] = tested on: SF-295
[52] = tested on: UO-31
[53] = tested on: A498
[54] = tested on: SN12C
[55] = tested on: ACHN
[56] = tested on: CAKI-1
[57] = tested on: TK-10
[58] = tested on: NCI-H460
[59] = tested on: T47D
[60] = tested on: HCC 2998
[61] = tested on: U-251
[62] = tested on: OVCAR-5
[63] = tested on: LXFL 529
[64] = tested on: UACC-62
[65] = tested on: K562
[66] = tested on: RPMI-8226
[67] = tested on: CCRF-CEM

C=C(C)C(=O)OC1CC2=CC(CC3(C)OC3C3OC(=O)C(=C)C13)OC2=O (stereo not drawn)
GI50 [1]: 1.99 µM (inactive)
GI50 [2]: 15.8 µM (inactive)
GI50 [3]: 22.6 µM (inactive)
GI50 [4]: 12.9 µM (inactive)
GI50 [5]: 2.24 µM (inactive)
GI50 [6]: 15.4 µM (inactive)
GI50 [7]: 4.14 µM (inactive)
GI50 [8]: 6.62 µM (inactive)
GI50 [9]: 18.6 µM (inactive)
GI50 [10]: 2.9 µM (inactive)
GI50 [11]: 11.8 µM (inactive)
GI50 [12]: 7.24 µM (inactive)
GI50 [13]: 16.9 µM (inactive)
GI50 [14]: 14.7 µM (inactive)
GI50 [15]: 15 µM (inactive)
GI50 [16]: 1.12 µM (active)
GI50 [17]: > 10 µM (inactive)
GI50 [18]: 2.91 µM (inactive)
GI50 [19]: 15.2 µM (inactive)
GI50 [20]: 22.4 µM (inactive)
GI50 [21]: 2.51 µM (inactive)
GI50 [22]: 12.9 µM (inactive)
GI50 [23]: 1.92 µM (inactive)
GI50 [24]: 2.9 µM (inactive)
GI50 [25]: 15 µM (inactive)
GI50 [26]: 15.2 µM (inactive)
GI50 [27]: 10.9 µM (inactive)
GI50 [28]: 23.7 µM (inactive)
GI50 [29]: 20.7 µM (inactive)
GI50 [30]: 10.7 µM (inactive)
GI50 [31]: 12.3 µM (inactive)
GI50 [32]: 4.23 µM (inactive)
GI50 [33]: 18.1 µM (inactive)
GI50 [34]: 14.7 µM (inactive)
GI50 [35]: 18.5 µM (inactive)
GI50 [36]: 5.01 µM (inactive)
GI50 [37]: 3.81 µM (inactive)
GI50 [38]: 12.6 µM (inactive)
GI50 [39]: 22.2 µM (inactive)
GI50 [40]: 1.84 µM (inactive)
GI50 [41]: 8.07 µM
GI50 [42]: 12.1 µM (inactive)
GI50 [43]: 5.41 µM (inactive)
GI50 [44]: 18.8 µM (inactive)
GI50 [45]: 15.6 µM (inactive)
GI50 [46]: 6.97 µM (inactive)
GI50 [47]: 9.66 µM (inactive)
GI50 [48]: 4.41 µM (inactive)
GI50 [49]: 19.3 µM (inactive)
GI50 [50]: 19.9 µM (inactive)
GI50 [51]: 18.6 µM (inactive)
GI50 [52]: 13.1 µM (inactive)
GI50 [53]: 16.6 µM (inactive)
GI50 [54]: 13.7 µM (inactive)
GI50 [55]: 5.41 µM (inactive)
GI50 [56]: 4.58 µM (inactive)
GI50 [57]: 7.73 µM (inactive)
GI50 [58]: 17.9 µM (inactive)
GI50 [59]: 4.67 µM (inactive)
GI50 [60]: 20 µM (inactive)
GI50 [61]: 17.4 µM (inactive)
GI50 [62]: 20 µM (inactive)
GI50 [63]: 2.51 µM (inactive)
GI50 [64]: 9.18 µM (inactive)

CCOC(=O)Nc1ccc(S(=O)(=O)OC)cc1.CCOC(=O)Nc1ccc(S(=O)(=O)OC)cc1.Cc1cn(C2CC(O)C(CO)O2)c(=O)[nH]c1=O
GI50 [1]: 45.5 µM (inactive)
GI50 [2]: > 100 µM (inactive)
GI50 [4]: > 100 µM (inactive)
GI50 [5]: 19.4 µM (inactive)
GI50 [65]: 34.2 µM (inactive)
GI50 [6]: > 100 µM (inactive)
GI50 [7]: 18.3 µM (inactive)
GI50 [8]: 49.8 µM (inactive)
GI50 [9]: > 100 µM (inactive)
GI50 [66]: 36.5 µM (inactive)
GI50 [12]: 35.4 µM (inactive)
GI50 [13]: > 100 µM (inactive)
GI50 [14]: > 100 µM (inactive)
GI50 [15]: > 100 µM (inactive)
GI50 [16]: 91.8 µM (inactive)
GI50 [18]: > 100 µM (inactive)
GI50 [20]: > 100 µM (inactive)
GI50 [22]: > 100 µM (inactive)
GI50 [24]: > 100 µM (inactive)
GI50 [25]: > 100 µM (inactive)
GI50 [26]: 69.7 µM (inactive)
GI50 [27]: > 100 µM (inactive)
GI50 [29]: > 100 µM (inactive)
GI50 [30]: > 100 µM (inactive)
GI50 [31]: > 100 µM (inactive)
GI50 [32]: > 100 µM (inactive)
GI50 [35]: > 100 µM (inactive)
GI50 [36]: 10 µM (inactive)
GI50 [38]: 86.3 µM (inactive)
GI50 [39]: > 100 µM (inactive)
GI50 [40]: > 100 µM (inactive)
GI50 [41]: 18.6 µM
GI50 [42]: > 100 µM (inactive)
GI50 [43]: > 100 µM (inactive)
GI50 [44]: > 100 µM (inactive)
GI50 [45]: > 100 µM (inactive)
GI50 [46]: 54.8 µM (inactive)
GI50 [47]: > 100 µM (inactive)
GI50 [67]: 87.1 µM (inactive)
GI50 [48]: > 100 µM (inactive)
GI50 [49]: > 100 µM (inactive)
GI50 [50]: > 100 µM (inactive)
GI50 [51]: > 100 µM (inactive)
GI50 [52]: > 100 µM (inactive)
GI50 [53]: > 100 µM (inactive)
GI50 [54]: > 100 µM (inactive)
GI50 [55]: > 100 µM (inactive)
GI50 [56]: > 100 µM (inactive)
GI50 [57]: > 100 µM (inactive)
GI50 [58]: > 100 µM (inactive)
GI50 [60]: > 100 µM (inactive)
GI50 [62]: > 100 µM (inactive)
GI50 [63]: > 100 µM (inactive)
GI50 [64]: > 100 µM (inactive)
